The results in this text go back to patent US20220387358A1, “CERAMIDE ANALOG SACLAC MODULATES SPHINGOLIPID LEVELS AND MCL-1 SPLICING TO INDUCE APOPTOSIS IN ACUTE MYELOID LEUKEMIA” (University of Virginia Patent Foundation, priority 2019, published 2022).

SMILES strings stand for the structures.

Experiment [1] concerns two human AML xenograft mouse models. As to the kind of experiment: Leukemic burden across two human AML xenograft mouse models. The experiment is classed as in vivo. The source says: To assess the efficacy of SACLAC in a transplantable human AML model, two cell line models were used. For the MV4-11 model, 2.5×10^6 luciferase and yellow fluorescent protein (YFP)-expressing MV4-11 cells in HBSS were introduced into 6- to 8-week-old female NSG mice via tail-vein injections. After 10-12 days, engraftment was confirmed using bioluminescence imaging with the IVIS Lumina LT Series III imaging system (PerkinElmer Inc., Waltham, Mass., United States of America). Mice were equally randomized into two groups of three mice and treated with vehicle or SACLAC at 5 mg/kg/day five times per week for 18 total injections. At the end of the treatment, animals were euthanized and peripheral blood was collected for flow cytometry analysis.
For the U937 model, 1×10^4 luciferase and tdTomato-expressing U937 cells in […] were introduced into 6- to 8-week-old female NSG mice via tail-vein injections. After six days, engraftment was confirmed as stated above. Mice were equally randomized into two groups of five mice and treated with vehicle or SACLAC at 5 mg/kg/day five times per week for 15 total injections. Animals were euthanized and bone marrow was collected for flow cytometry analysis.

In a further experiment the test system is KG1a cells. As to the kind of experiment: Rescue from SACLAC-induced apoptosis by Mcl-1S knockdown. The experiment is classed as cell-based, human. Conditions: 10 μM SACLAC 48 hours; siRNA (100 nM) targeting MCL-1S vs scrambled. The procedure: Apoptosis in cell lines was assessed after treating 2.5×10^5 cells per ml with drug or vehicle in a 48-well plate for the indicated time points and doses. Primary human AML cells were pre-incubated with SFEM for 48 hours before plating 2×10^5 cells in 24-well plates for the indicated times point and doses. Samples were stained using the Muse Annexin V & Dead Cell Kit (Millipore #MCH100105). Change in mitochondrial membrane potential in cell lines was measured with the Muse® MitoPotential Kit (#MCH100110, MilliporeSigma, Burlington, Mass., United States of America). Caspase activation was measured using the Muse® Caspase 3/7 Assay Kit (#MCH100108, MilliporeSigma, Burlington, Mass., United States of America). For rescue experiments, cells were plated at 2.5×10^4 well in a 96-well plate 24 hours after electroporation. Cells were treated with DMSO or SACLAC for 48 hours and apoptosis was detected as stated above. All kits were used according to manufacturer's protocol. Cells were then analyzed using the Muse® Cell Analyzer (MilliporeSigma, Burlington, Massachusetts, United States of America) (35,36). Experiments included positive and negative controls for proper analysis. […]

The test system of experiment [2] is MCL-1S transcript in OCI-AML2 cells. As to the kind of experiment: RT-qPCR of MCL-1S transcript. The experiment is classed as cell-based, human. As to conditions: 5 μM SACLAC; 6 hours. The procedure:
Cells were seeded at 2.5×10^5 cells per ml in 6-well plates and treated with DMSO or SACLAC for six hours. Cells were harvested and resuspended in TRIzol reagent (#15596026, Invitrogen, Carlsbad, Calif., United States of America). RNA was isolated using Direct-zol RNA Miniprep Plus (#R2072, Zymo Research, Irvine, Calif., United States of America) according to the manufacturer's protocol. RNA was quantified using the Take3 microplate and the pre-programmed RNA quantification protocol on the Gen5 software for the Cytation 3 plate reader (BioTek, Winooski, Vt., United States of America). DNase treatment and reverse transcription were done using the iScript gDNA Clear cDNA Synthesis Kit (#1725035, Bio-Rad Laboratories, Hercules, Calif., United States of America) in accordance with the manufacturer's protocol. The qPCR reaction contained iTaq Universal SYBR Green (#1725122, Bio-Rad Laboratories, Hercules, Calif., United States of America), 140 ng cDNA and primers specific for HPRT (#100-25636, Bio-Rad Laboratories, Hercules, Calif., United States of America), B2M (#100-25636, Bio-Rad Laboratories, Hercules, Calif., United States of America) and MCL-1S (Eurofins (Luxembourg); forward, 5′-[…]-3′ (SEQ ID NO: 1) and reverse, 5′-[…]-3′ (SEQ ID NO: 2)) (38). This primer pair specifically amplifies Mcl-1 transcript variant 2 (MCL-1S) according to BLAST analysis. […]
(In qPCR the cycle at which signal appears reflects the starting amount.)

Another experiment deals with U937 AML cells. As to the kind of experiment: U937 AML xenograft model in NSG mice. The experiment is classed as in vivo. Conditions: 5 mg/kg tail-vein, five times per week, 15 injections. The procedure: MV4-11 AML cells expressing luciferase (luc2) and YFP (39) or U937 AML cells expressing luc2 and tdTomato (#72486, Addgene, Watertown, Mass., United States of America) were used to investigate the efficacy of SACLAC in NOD-scid […] (NSG) mice (Jackson Laboratories, Bar Harbor, Me., United States of America). Maximum tolerated dose and pharmacokinetic studies were also performed to determine safety and delivery of compound.
For the U937 model, 1×10^4 luciferase and tdTomato-expressing U937 cells in […] were introduced into 6- to 8-week-old female NSG mice via tail-vein injections. After six days, engraftment was confirmed as stated above. Mice were equally randomized into two groups of five mice and treated with vehicle or SACLAC at 5 mg/kg/day five times per week for 15 total injections. […]
Red blood cells (RBC) were lysed with RBC Lysis Buffer (#420301, BioLegend, San Diego, Calif., United States of America) followed by cell surface staining with anti-human CD45 antibodies (#304014, clone HI30, BioLegend, San Diego, Calif., United States of America) and 7AAD (#420404, BioLegend, San Diego, Calif., United States of America) to detect viable human white blood cells (WBC) using an LSR II flow cytometer and BD FACS Diva software. […] Percentage of YFP, tdTomato or hCD45 positive cells was determined in FlowJo software (Becton Dickinson, Franklin Lakes, N.J., United States of America). […]

As for `CCCCCCCCCCCCCCC[C@@H](O)[C@H](CO)NC(=O)CCl` [SACLAC, N-[(2S,3R)-1,3-dihydroxyoctadecan-2-yl]2-chloroacetamide], in experiment [1], the “reduction in leukemic burden” value lay in the range of 37 to 75%. In the experiment on KG1a cells, the “apoptosis induction reduced by, in Mcl-1S knockdown cells” value is recorded as 36%. In addition, the MCL-1S transcript level entry in experiment [2] is “Increased”. For the same molecule, the “reduction in leukemic cells in the bone marrow” value in the experiment with U937 AML cells is given as “up to 50%”.
